Among the test systems are OVCAR-4 ovarian; CCRF-CEM leukemia; MCF7 breast; KM12 colon; SF-295 CNS; SK-MEL-28 melanoma; SF-539 CNS; OVCAR-5 ovarian; COLO 205 colon; T-47D breast.
Common to all, as to assay: inhibition of tumour cell growth, NCI panel, 48 h

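96-well plates; 48 h exposure; 5 concentrations. Endpoints by linear interpolation between flanking doses. Not reached: highest tested concentration assigned. GI50 marks 50% less growth. The concentration for full growth arrest is given as TGI.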

Take `Cc1cccc(Oc2ccc(Nc3ncnc4ccc(NC(=O)CN5CCN(C)CC5)cc34)cc2Cl)c1`: the GI50 with OVCAR-4 ovarian was 1720 nM; with CCRF-CEM leukemia, 2060 nM; with MCF7 breast, 1510 nM; with KM12 colon, 1740 nM; with SF-295 CNS it was 1830 nM; with SK-MEL-28 melanoma it was 1740 nM. Also, the GI50 is 1730 nM in the test on SF-539 CNS and 1660 nM in the test on OVCAR-5 ovarian. In addition, the TGI is 4.3 µM in the test with OVCAR-4 ovarian; 5.21 µM with CCRF-CEM leukemia; 2990 nM in the test with MCF7 breast; 3.24 µM in the test with KM12 colon; 3.39 µM in the test on SF-295 CNS; 3.2 µM in the test with SK-MEL-28 melanoma. Further, the TGI with SF-539 CNS is 3.19 µM; in the test with OVCAR-5 ovarian, 3.2 µM.
With `Cn1cc(C(=O)/C(Cl)=C(\Cl)C(=O)O)c2ccccc21`, the TGI with OVCAR-4 ovarian, with CCRF-CEM leukemia, in the test on KM12 colon, with SF-295 CNS, with SK-MEL-28 melanoma and in the test with SF-539 CNS was above 100 µM throughout. In the test with OVCAR-5 ovarian, this compound registered a TGI above 100 µM.
Turning to `C/C=C/CP(=O)(c1ccccc1)c1ccccc1`, the TGI in the test with OVCAR-4 ovarian, with CCRF-CEM leukemia, with COLO 205 colon, with KM12 colon, with SF-295 CNS and in the test with SK-MEL-28 melanoma was above 100 µM each time. Besides, the TGI with SF-539 CNS and in the test on OVCAR-5 ovarian was above 100 µM each time.
For `O=C(CC1(O)C(=O)Nc2ccccc21)c1ccc(O)cc1O` (stereo not drawn), the TGI with OVCAR-4 ovarian, in the test with COLO 205 colon, in the test on SF-295 CNS, in the test on SK-MEL-28 melanoma, in the test with SF-539 CNS and with OVCAR-5 ovarian was above 100 µM in each case.
Regarding `NC1=NN(c2ccccc2)C(=O)C1C(=O)C(=O)Nc1cccc(C(F)(F)F)c1` (stereo not drawn), the TGI in the test on OVCAR-4 ovarian, in the test on CCRF-CEM leukemia, in the test on COLO 205 colon, with KM12 colon, in the test with SF-295 CNS and with SF-539 CNS was above 100 µM in each case. The TGI in the test on OVCAR-5 ovarian was above 100 µM.
On to `CCN(CC)CCCN1C(=O)c2c(c(C)c3c(oc4cc(O)ccc43)c2C)C1=O`, for which the GI50 in the test on OVCAR-4 ovarian was 1840 nM; in the test on T-47D breast it was 1850 nM; in the test with CCRF-CEM leukemia, 359 nM; in the test on COLO 205 colon, 1560 nM; in the test on KM12 colon, 1800 nM; in the test with SF-295 CNS, 1840 nM. The GI50 was 1830 nM in the test on SK-MEL-28 melanoma, 1770 nM in the test on SF-539 CNS and 1720 nM in the test with OVCAR-5 ovarian. Moreover, the TGI in the test on OVCAR-4 ovarian was determined as 3.55 µM; with T-47D breast, 3.8 µM; in the test with CCRF-CEM leukemia it was 1.76 µM; with COLO 205 colon it was 3.13 µM; in the test on KM12 colon, 3.37 µM; in the test on SF-295 CNS, 3.32 µM. The TGI came out at 3.4 µM in the test with SK-MEL-28 melanoma, 3.18 µM with SF-539 CNS and 3.22 µM with OVCAR-5 ovarian.
Turning to `O=C(Nc1ccc(N=Nc2ccccc2)cc1)Sc1ccccc1C(=O)O`, the TGI in the test on OVCAR-4 ovarian, in the test on COLO 205 colon, in the test with KM12 colon, in the test on SF-295 CNS, in the test on SK-MEL-28 melanoma and in the test with SF-539 CNS was above 100 µM throughout. This compound also registered a TGI in the test with OVCAR-5 ovarian above 100 µM.
For `O[C@H]1[C@H]2[C@H](O)CCCN2C[C@H]1O`, the TGI in the test on OVCAR-4 ovarian, in the test on CCRF-CEM leukemia, in the test with COLO 205 colon, in the test on KM12 colon, with SF-295 CNS and with SK-MEL-28 melanoma was above 100 µM each time. Besides, the TGI in the test with SF-539 CNS and with OVCAR-5 ovarian was above 100 µM in each case.
For `COc1ccc(/C(Cl)=C(\C=O)c2cc(OC)c(OC)c(OC)c2)cc1OC`, the TGI in the test with OVCAR-4 ovarian was above 100 µM; with T-47D breast, above 100 µM; in the test with CCRF-CEM leukemia, above 100 µM; in the test on COLO 205 colon it was above 100 µM; in the test with KM12 colon, 73.8 µM; with SF-295 CNS it was above 100 µM. Further, the figures for the TGI in the test with SK-MEL-28 melanoma, with SF-539 CNS and with OVCAR-5 ovarian were above 100 µM, 87.9 µM and above 100 µM, respectively.
On to `COC1=CC(C)C2C[C@H]3O[C@H](O)C[C@H]4C(C)C(=O)C(O)C([C@@]2(C)C1=O)[C@@]34C` (stereo partly drawn), for which the TGI with CCRF-CEM leukemia, in the test on COLO 205 colon, in the test on KM12 colon, in the test with SF-295 CNS, in the test with SK-MEL-28 melanoma and in the test on SF-539 CNS was above 100 µM in each case.
For the compound `N#Cc1c(C(N)=O)ncn1Cc1ccccc1`, the TGI in the test with OVCAR-4 ovarian, in the test with CCRF-CEM leukemia, in the test on COLO 205 colon, in the test on KM12 colon, in the test on SF-295 CNS and with SF-539 CNS was above 100 µM throughout. Besides, the TGI with OVCAR-5 ovarian was above 100 µM.
Regarding `O=C1CC(c2ccccc2)NCN1` (stereo not drawn), the TGI in the test with OVCAR-4 ovarian, in the test on CCRF-CEM leukemia, in the test with COLO 205 colon, with KM12 colon, in the test on SF-295 CNS and in the test with SK-MEL-28 melanoma was above 100 µM in each case. The compound also showed a TGI in the test on OVCAR-5 ovarian above 100 µM.
Turning to `COc1ccc(C(=O)O)c2c(=O)c3ccccc3[nH]c12`, the TGI in the test on OVCAR-4 ovarian is above 100 µM; with CCRF-CEM leukemia, above 31.6 µM; in the test with COLO 205 colon it was above 100 µM; in the test with KM12 colon, above 100 µM; in the test with SF-295 CNS it was above 100 µM; in the test on SK-MEL-28 melanoma, above 100 µM. In addition, the TGI in the test on SF-539 CNS and in the test with OVCAR-5 ovarian was above 100 µM throughout.
Turning to `Cc1ccc(NC(=O)/C(=N/NC(=O)CC#N)C2C(=O)N(c3ccccc3)N=C2N)cc1C` (stereo not drawn), the TGI in the test with OVCAR-4 ovarian, in the test with CCRF-CEM leukemia, in the test with COLO 205 colon, with KM12 colon, in the test on SF-295 CNS and with SK-MEL-28 melanoma was above 100 µM each time. Besides, the TGI in the test with SF-539 CNS and in the test on OVCAR-5 ovarian was above 100 µM throughout.
Consider `COc1ccc(C2c3cc4c(cc3OC(O)(CO)C2C(=O)O)OCO4)c(OC)c1OC` (stereo not drawn) (tested in a mixture with another compound), for which the TGI in the test on OVCAR-4 ovarian, in the test with CCRF-CEM leukemia, in the test with COLO 205 colon, with SF-295 CNS, in the test on SK-MEL-28 melanoma and in the test on SF-539 CNS was above 100 µM in each case.

These data come from PubChem BioAssay (NCI).
